Laboratory results as given in ChEMBL document CHEMBL1132268, “Non-thiol 3-aminomethylbenzamide inhibitors of farnesyl-protein transferase” (Bioorg Med Chem Lett, 1999).
Converted amounts (≈) assume the structure as drawn.

What was measured:
[1] = target: Protein farnesyltransferase (Homo sapiens, UniProt P49354+P49356); assay: Inhibition of [3H]FPP incorporation into recombinant Ha-Ras by bovine brain farnesyltransferase; assay type: functional, Bos taurus
[2] = target: Geranylgeranyl transferase type I (Homo sapiens, UniProt P49354+P53609); assay: Inhibition of geranylgeranyl transferase I (GGTase-I); assay type: protein-complex assay
[3] = system: Rat1; assay: Minimal cytotoxic effect (<10%) in RAT1 cell viability assay; assay type: functional, Rattus norvegicus
[4] = system: Rat1; assay: Inhibition of v-Ha-ras (Ras2B) transformed RAT1 cell colony size and number in soft agar assay; assay type: functional; conditions: Rattus norvegicus
[5] = system: Rat1; assay: Inhibition of v-raf (Raf1a1) transformed RAT1 cell colony size and number in soft agar assay; assay type: functional; conditions: Rattus norvegicus
[6] = system: NIH3T3; assay: Inhibition of the post-translational prenylation of Ha-Ras protein in cultured NIH3T3 cells in a protein processing assay; assay type: functional, cell-based; conditions: Mus musculus

Compound | IC50 [1] [µM] | IC50 [2] [µM] | CTE [3] | MIC [4] [µM] | MIC [5] [µM] | IC50 [6] [µM]
CSCC[C@H](NC(=O)c1cccc(CN(Cc2cnc[nH]2)Cc2cnc[nH]2)c1)C(=O)O | 0.87 | 17 | – | – | – | –
COC(=O)[C@H](CCSC)NC(=O)c1cccc(CNCc2cncn2Cc2ccc(C#N)cc2)c1 | – | – | 25 µM | 10 (≈ 4.92 µg/mL) | > 10 | –
CCCCN(Cc1cccc(C(=O)N[C@@H](CCSC)C(=O)OC)c1)Cc1cncn1Cc1ccc(C#N)cc1 | – | – | 25 µM | > 10 | > 10 | –
COC(=O)[C@H](CCSC)NC(=O)c1cccc(CN(Cc2ccc(C#N)cc2)Cc2c[nH]cn2)c1 | – | – | >=50 uM | 10 (≈ 4.92 µg/mL) | > 10 | –
CSCC[C@H](NC(=O)c1cccc(CN(Cc2ccc(C#N)cc2)Cc2cnc[nH]2)c1)C(=O)O | 0.012 | 6.2 | – | – | – | –
COC(=O)[C@H](CCSC)NC(=O)c1cccc(CN(Cc2ccc(C#N)cc2)Cc2cncn2Cc2ccc(C#N)cc2)c1 | – | – | 25 µM | ≤ 1 | > 10 | ~5
